Experimental data reported in the SangsterLogP compilation.

| SMILES | logP |
| --- | --- |
| c1ccc2ccccc2c1 | 3.37 |
| COC(=O)c1cc(Oc2ccc(Cl)cc2Cl)ccc1[N+](=O)[O-] | 4.53 |
| Nc1c(Cl)cccc1Cl | 2.75 |
| COC(=O)c1ccccc1CS(=O)(=O)NC(=O)Nc1nc(OC)cc(OC)n1 | 2.36 |
| CCCCOC(=O)c1ccccc1C(=O)OCCCC | 4.46 |
| OC(Cn1cncn1)(c1ccc(F)cc1)c1ccccc1F (stereo not drawn) | 2.26 |
| c1ccc(-c2ccccn2)nc1 | 1.72 |
| CCCN(CCOc1c(Cl)cc(Cl)cc1Cl)C(=O)n1ccnc1 | 4.02 |
| Fc1ccc(Oc2ccnc3cc(Cl)cc(Cl)c23)cc1 | 5.27 |
| c1ccc(-c2ccccc2)cc1 | 3.96 |
| COC(=O)C(C)N(C(=O)c1ccco1)c1c(C)cccc1C (stereo not drawn) | 2.59 |
| CC1=C(C(=O)Nc2ccccc2)SCCO1 | 2.08 |
| CC(=O)Nc1cccnc1 | 0.38 |
| Cc1cccc2sc3nncn3c12 | 1.42 |
| COP(=S)(OC)SCN1C(=O)c2ccccc2C1=O | 2.71 |
| CS(=O)(=O)c1ccccc1 | 0.51 |
| COC(=O)c1ccccc1C(=O)OC | 1.49 |
| CC1=CC(=O)CC(C)(C)[C@@]1(O)/C=C/C(C)=C\C(=O)O | 1.71 |
| Nc1ccc(C(F)(F)F)cc1 | 2.31 |
| C=CCN(CC=C)C(=O)C(Cl)Cl | 1.77 |
| COC(=O)Cc1ccccc1 | 1.75 |
| c1ccc2[nH]ccc2c1 | 2.15 |
| CC(=O)Nc1ccccc1C(F)(F)F | 1.14 |

| SMILES | logP |
| --- | --- |
| CC(C)N(C(=O)CCl)c1ccccc1 | 2.12 |
| c1ccc2[nH]cnc2c1 | 1.29 |
| COCC(=O)N(c1c(C)cccc1C)C(C)C(=O)OC (stereo not drawn) | 1.6 |
| CC(C)(C)C(O)C(Cc1ccc(Cl)cc1Cl)n1cncn1 (stereo not drawn) | 3.69 |
| CNC(=O)Nc1ccc(C(=O)O)cc1 | 1.16 |
| CC1(C)CCC(Cc2ccc(Cl)cc2)C1(O)Cn1cncn1 (stereo not drawn) | 3.82 |
| O=[N+]([O-])c1ccc(Oc2ccccc2)cc1 | 3.66 |
| CO/C=C(/C(=O)OC)c1ccccc1COc1cc(C(F)(F)F)nc(OC(C)C)n1 | 4.18 |
| CCON=C(CC)C1=C(O)CC(c2c(C)cc(C)cc2C)CC1=O (stereo not drawn) | 4.77 |
| CCC(=O)c1ccccc1 | 2.16 |
| Cc1cc(C2CC2)nc(Nc2ccccc2)n1 | 3.91 |
| c1ccc(-c2ccncn2)cc1 | 1.9 |
| CC(C)(C)[C@H](O)[C@H](Cc1ccc(Cl)cc1)n1cncn1 | 3.09 |
| Cn1cc(C(=O)Nc2cccc3c2[C@@H]2CC[C@H]3C2=C(Cl)Cl)c(C(F)F)n1 | 4.34 |
| O=C(NCCc1ncc(C(F)(F)F)cc1Cl)c1ccccc1C(F)(F)F | 3.26 |
| O=C(CCl)Nc1ccccc1 | 1.54 |
| Nc1cc(Cl)cc(Cl)c1 | 2.89 |
| Cc1cc(C(F)(F)F)nn1CC(=O)N1CCC(c2nc(C3=NOC(c4c(F)cccc4F)C3)cs2)CC1 (stereo not drawn) | 3.6 |
| N#Cc1cnc2ccccc2c1 | 1.64 |
| CCSC(=O)N(CC(C)C)CC(C)C | 4.1 |
| CC(C)N(Cc1ccccc1)C(=O)C(C)(C)C | 2.98 |
| COc1nc(C)nc(NC(=O)NS(=O)(=O)c2ccccc2OCCCl)n1 | 1.72 |
| CO/N=C(/C1=NOCCO1)c1ccccc1Oc1ncnc(Oc2ccccc2Cl)c1F | 2.95 |

| SMILES | logP |
| --- | --- |
| CC(C)N1C(=O)c2ccccc2NS1(=O)=O | 2.75 |
| C[Si](Cn1cncn1)(c1ccc(F)cc1)c1ccc(F)cc1 | 3.76 |
| Fc1ccc([C@@]2(Cn3cncn3)O[C@@H]2c2ccccc2Cl)cc1 | 3.3 |
| CC1(c2ccc(Oc3ccccc3)cc2)OC(=O)N(Nc2ccccc2)C1=O (stereo not drawn) | 4.78 |
| Cc1ccc(CO)cc1 | 1.62 |
| O=Cc1cccc(Oc2ccccc2)c1 | 3.32 |
| C#CC(C)(C)NC(=O)c1cc(Cl)cc(Cl)c1 | 3.23 |
| CCc1cccc(C)c1N(C(=O)CCl)C(C)COC (stereo not drawn) | 3.01 |
| CCCCc1c(C)nc(NCC)[nH]c1=O | 2.23 |
| N#CN=C1SCCN1Cc1ccc(Cl)nc1 | 1.26 |
| CO/N=C(/C(=O)OC)c1ccccc1CO/N=C(\C)c1cccc(C(F)(F)F)c1 | 4.45 |
| Cc1ccc(NC(=O)N(C)C)cc1Cl | 2.43 |
| CCCCCOC(=O)C(C)Oc1ccc(Oc2ccc(C(F)(F)F)cn2)cc1 (stereo not drawn) | 5.6 |
| CS(=O)(=O)c1ccc(C(=O)C2C(=O)CCCC2=O)c([N+](=O)[O-])c1 | 0.9 |
| CC(C1CC1)C(O)(Cn1cncn1)c1ccc(Cl)cc1 (stereo not drawn) | 2.99 |
| Cc1cc(C)nc(Nc2ccccc2)n1 | 2.84 |
| CN(C)C(=O)Nc1ccc(Cl)c(Cl)c1 | 2.74 |
| CC(=O)Nc1ccccn1 | 0.56 |
| CC(=NC#N)N(C)Cc1ccc(Cl)nc1 | 0.82 |
| c1ccc2c(c1)Nc1ccccc1S2 | 4.08 |
| CCCCC(C#N)(Cn1cncn1)c1ccc(Cl)cc1 (stereo not drawn) | 3.06 |
| COC(=O)NCc1cc(/C(C)=N/OCc2cccc(C)n2)ccc1Cl | 3.64 |
| COC(=O)c1ccccc1S(=O)(=O)NC(=O)Nc1nc(OC(F)F)cc(OC(F)F)n1 | 3.49 |

| SMILES | logP |
| --- | --- |
| O=[N+]([O-])c1ccccc1 | 1.79 |
| COC(=O)c1ccc(Cl)cc1 | 2.81 |
| Cc1cc(C)nc(NC(=O)NS(=O)(=O)c2ccccc2C(=O)OC2COC2)n1 | 1.07 |
| CCOC(=O)C(C)Oc1ccc(Oc2ccc(C(F)(F)F)cn2)cc1 (stereo not drawn) | 3.9 |
| CO/C=C(/C(=O)OC)c1ccccc1Oc1cc(Oc2ccccc2C#N)ncn1 | 2.53 |
| CCCCn1nnc2ccccc21 | 2.52 |
| C[C@@H](Oc1ccc(Oc2ccc(C(F)(F)F)cn2)cc1)C(=O)O | 3.21 |
| Nc1ccc(Cl)c(Cl)c1 | 2.62 |
| COC(=O)C=Cc1ccccc1 | 2.67 |
| CCCCOC(=O)C(C)Oc1ccc(Oc2ccc(C(F)(F)F)cn2)cc1 (stereo not drawn) | 5.01 |
| FC(F)C(F)(F)OCC(Cn1cncn1)c1ccc(Cl)cc1Cl (stereo not drawn) | 3.49 |
| Oc1cccc2cccnc12 | 1.93 |
| CC(C)N1C(=O)N(c2ccccc2)CSC1=NC(C)(C)C | 4.92 |
| c1ccc(Sc2ccccc2)cc1 | 4.43 |
| CCN1C(=O)C(=O)c2ccc(OC)cc2C1=O | 1.4 |
| CCOc1cc(Oc2ccc(C(F)(F)F)cc2Cl)ccc1[N+](=O)[O-] | 5.19 |
| COc1nc(C)nc(NC(=O)NS(=O)(=O)c2ccccc2CCC(F)(F)F)n1 | 2.87 |
| CC(Oc1ccc(Oc2ccc(Cl)cc2Cl)cc1)C(=O)O (stereo not drawn) | 4.69 |
| CCNc1nc(Cl)nc(NCC)n1 | 2.09 |
| c1ccc(-c2ccc(C(c3ccccc3)n3ccnc3)cc2)cc1 (stereo not drawn) | 5.12 |
| Cc1nc(N(C)C)nc(OC(=O)N(C)C)c1C | 1.75 |
| CCOC(=O)c1ccc([N+](=O)[O-])cc1 | 2.43 |
| O=C(O)COc1ccc(Cl)cc1Cl | 2.66 |

| SMILES | logP |
| --- | --- |
| O=[N+]([O-])C=C1CCCN1Cc1ccc(Cl)nc1 | 0.7 |
| CC1COC(Cn2cncn2)(c2ccc(Oc3ccc(Cl)cc3)cc2Cl)O1 (stereo not drawn) | 4.24 |
| CNC(=O)Nc1ccc(S(=O)(=O)NC(=O)c2ccccc2OC)cc1 | 1.95 |
| CS(=O)(=O)c1ccc(C(=O)C2C(=O)CCCC2=O)c(Cl)c1COCC(F)(F)F | 2.15 |
| C[C@@H](Oc1ccc(Oc2ccc(C#N)cc2F)cc1)C(=O)O | 3.08 |
| CCCC1COC(Cn2cncn2)(c2ccc(Cl)cc2Cl)O1 (stereo not drawn) | 3.57 |
| CCN(CC)C(=O)C(C)Oc1cccc2ccccc12 (stereo not drawn) | 3.22 |
| COc1c(Cl)ccc(Cl)c1C(=O)O | 2.52 |
| CCOC(=O)c1cccnc1 | 1.38 |
| C#CCOc1ccc(CCNC(=O)C(OCC#C)c2ccc(Cl)cc2)cc1OC (stereo not drawn) | 3.16 |
| CCCC(=O)c1ccccc1 | 2.68 |
| COC(=O)N(C(=O)N1CO[C@@]2(C(=O)OC)Cc3cc(Cl)ccc3C2=N1)c1ccc(OC(F)(F)F)cc1 | 4.75 |
| N#Cc1cc(Br)c(O)c(Br)c1 | 2.9 |
| CCCC(=O)c1c(C)cc(C)c(C2CC(=O)C(/C(CC)=N/OCC)=C(O)C2)c1C (stereo not drawn) | 4.74 |
| CNC(=O)Oc1ccccc1OC(C)C | 1.55 |
| CCNc1nc(Cl)nc(NC(C)C)n1 | 2.54 |
| CCCCC(O)(Cn1cncn1)c1ccc(Cl)cc1Cl (stereo not drawn) | 3.8 |
| CC(C)Oc1cccc(NC(=O)c2ccccc2C(F)(F)F)c1 | 3.59 |
| CON(C(=O)c1cn(C)nc1C(F)F)C(C)Cc1c(Cl)cc(Cl)cc1Cl (stereo not drawn) | 3.77 |
| CC(C)(C)C(O)(CCc1ccc(Cl)cc1)Cn1cncn1 (stereo not drawn) | 3.59 |
| O=c1c2cc(F)ccc2nc(-n2cncn2)n1-c1ccc(Cl)cc1Cl | 3.21 |
| COC(=O)C(C)Oc1ccc(Oc2ccc(Cl)cc2Cl)cc1 (stereo not drawn) | 4.89 |
| CN(C)C(=O)Nc1cc(C(C)(C)C)on1 | 1.91 |

| SMILES | logP |
| --- | --- |
| CCCOC(=O)C(C)Oc1ccc(Oc2ccc(C(F)(F)F)cn2)cc1 (stereo not drawn) | 4.44 |
| Cc1cc(Cl)ccc1OCC(=O)O | 2.79 |
| N#Cc1c(Cl)c(Cl)c(Cl)c(C#N)c1Cl | 2.93 |
| CCOC(=O)C1CC(=O)C(=C(O)C2CC2)C(=O)C1 (stereo not drawn) | 2.02 |
| O=C1CC(C(=O)O)CC(=O)C1=C(O)C1CC1 (stereo not drawn) | 1.42 |
| CC(C)(C)C(=O)C(Oc1ccc(Cl)cc1)n1cncn1 (stereo not drawn) | 3.11 |
| COc1cc(OC)nc(NC(=O)NS(=O)(=O)c2ncccc2OCC(F)(F)F)n1 | 1.85 |
| N#Cc1c[nH]cc1-c1cccc2c1OC(F)(F)O2 | 4.16 |
| CCOCn1c(-c2ccc(Cl)cc2)c(C#N)c(Br)c1C(F)(F)F | 5.24 |
| CSc1nnc(C(C)(C)C)c(=O)n1N | 1.61 |
| CC(C)(C)N(NC(=O)c1ccccc1)C(=O)c1ccccc1 | 2.43 |
| CC(C)CC(C)c1sccc1NC(=O)c1cn(C)nc1C(F)(F)F (stereo not drawn) | 3.96 |
| CNC(=O)Oc1cccc2c1OC(C)(C)C2 | 1.59 |
| Cc1[nH]n(C)c(=O)c1C(=O)c1ccc(C(F)(F)F)cc1S(C)(=O)=O | 0.63 |
| c1ccc(Oc2ccccn2)cc1 | 2.36 |
| CC(C)N(C)S(=O)(=O)NC(=O)c1cc(-n2c(=O)cc(C(F)(F)F)n(C)c2=O)c(F)cc1Cl | 2.33 |
| O=[N+]([O-])c1c(Cl)c(Cl)cc(Cl)c1Cl | 4.28 |
| CS(=O)(=O)c1ccc(C(=O)C2C(=O)CCCC2=O)c(Cl)c1 | 1.2 |
